From patent US11643393B2, “Integrin antagonists” (The General Hospital Corporation, priority 2018, dated 2023)
“Also recorded” adds a separate entry of the source. Where two headings read alike, the source gives them in different places. Positions of bridges follow the written chain, without caps; N, C: chain ends. Non-standard residues stand in square brackets, D forms with d. Residues, ends and D or L forms follow the SMILES beside them. hArg = N=C(N)NCCCC[C@H](N)C(=O)O; Mpa = O=C(O)CCS

Tests used:
αIIbβ3 [1] = target: T1, αIIbβ3 (Homo sapiens, UniProt P05106+P08514); test: Binding of conformation-sensitive mAbs AP5 / LIBS-1 to human platelets; type: cell-based; settings: for induction of AP5 epitope expression: tirofiban 150 nM
T1 sequence (P08514 32-887 limits assumed): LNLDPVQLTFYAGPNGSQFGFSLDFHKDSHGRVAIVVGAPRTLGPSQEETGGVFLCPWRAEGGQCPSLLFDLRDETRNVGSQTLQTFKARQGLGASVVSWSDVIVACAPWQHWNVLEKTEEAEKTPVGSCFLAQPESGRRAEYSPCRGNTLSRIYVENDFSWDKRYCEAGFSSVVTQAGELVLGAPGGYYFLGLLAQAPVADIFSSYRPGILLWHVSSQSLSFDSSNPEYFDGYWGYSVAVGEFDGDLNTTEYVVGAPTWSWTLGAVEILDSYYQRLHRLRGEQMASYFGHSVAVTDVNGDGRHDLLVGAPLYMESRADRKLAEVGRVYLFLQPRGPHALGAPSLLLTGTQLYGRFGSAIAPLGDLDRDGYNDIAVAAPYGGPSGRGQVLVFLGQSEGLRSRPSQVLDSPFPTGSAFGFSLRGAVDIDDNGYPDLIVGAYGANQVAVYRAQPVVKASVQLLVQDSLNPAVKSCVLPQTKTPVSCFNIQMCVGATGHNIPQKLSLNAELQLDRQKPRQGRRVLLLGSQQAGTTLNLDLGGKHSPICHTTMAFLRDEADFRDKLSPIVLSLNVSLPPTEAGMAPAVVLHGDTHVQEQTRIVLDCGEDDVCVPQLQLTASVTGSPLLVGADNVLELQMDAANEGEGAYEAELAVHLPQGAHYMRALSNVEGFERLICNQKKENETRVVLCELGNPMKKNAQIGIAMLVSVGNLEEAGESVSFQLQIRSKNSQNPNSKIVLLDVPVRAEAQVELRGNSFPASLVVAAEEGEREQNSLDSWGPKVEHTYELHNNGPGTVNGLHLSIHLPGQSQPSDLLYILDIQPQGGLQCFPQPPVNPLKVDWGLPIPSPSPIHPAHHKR
T1 sequence (P08514 891-1039 partner limits assumed): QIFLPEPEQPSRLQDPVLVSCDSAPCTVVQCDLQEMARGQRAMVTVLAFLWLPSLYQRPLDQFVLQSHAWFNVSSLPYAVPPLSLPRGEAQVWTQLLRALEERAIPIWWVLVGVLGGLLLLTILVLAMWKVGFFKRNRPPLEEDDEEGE
T1 sequence (P05106 27-788): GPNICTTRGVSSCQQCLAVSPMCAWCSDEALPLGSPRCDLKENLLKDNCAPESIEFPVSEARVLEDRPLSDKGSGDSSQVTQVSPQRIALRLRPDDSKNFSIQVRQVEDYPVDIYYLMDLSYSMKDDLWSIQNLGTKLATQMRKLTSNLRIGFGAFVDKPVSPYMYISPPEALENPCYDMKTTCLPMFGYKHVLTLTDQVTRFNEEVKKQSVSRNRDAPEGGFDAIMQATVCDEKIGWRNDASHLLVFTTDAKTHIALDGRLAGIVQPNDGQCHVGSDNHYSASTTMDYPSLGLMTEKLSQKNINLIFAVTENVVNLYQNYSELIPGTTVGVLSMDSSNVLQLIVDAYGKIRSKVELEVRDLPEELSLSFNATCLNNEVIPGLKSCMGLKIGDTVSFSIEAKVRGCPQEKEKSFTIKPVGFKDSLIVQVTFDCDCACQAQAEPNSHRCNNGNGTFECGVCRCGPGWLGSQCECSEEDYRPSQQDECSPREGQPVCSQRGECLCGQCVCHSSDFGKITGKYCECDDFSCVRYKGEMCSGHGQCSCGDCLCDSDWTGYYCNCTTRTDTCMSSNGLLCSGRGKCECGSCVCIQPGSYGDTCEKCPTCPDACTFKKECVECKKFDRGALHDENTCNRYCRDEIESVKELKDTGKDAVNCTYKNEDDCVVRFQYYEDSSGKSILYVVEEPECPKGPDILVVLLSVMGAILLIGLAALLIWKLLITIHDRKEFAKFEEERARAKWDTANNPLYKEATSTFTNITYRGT

human platelets [2] = test: Agonist-induced platelet aggregation in whole human blood (impedance, Chrono-Log 700); type: cell-based; settings: for IC50: Homo sapiens, Platelet
Protocol: (§1) Platelet aggregation and ATP secretion in whole blood were performed in a Chrono-Log model 700 two-channel lumi-aggregation system following the manufacturer's instructions. Blood was drawn directly into 3.2% sodium citrate from healthy volunteers, and blood was used within 3 hours. None of the subjects were taking any medications for at least 10 days prior. For impedance aggregation measurements, 0.5 mL of blood was mixed with 0.5 mL physiologic saline supplemented with inhibitors and incubated at 37° C. for 5 minutes without stirring. Measurements were performed with stirring at 1,200 rpm at 37° C. Values for each data point represent impedance measurements following application of agonist integrated over 5 minutes. Data points for an individual dose curve were serially collected from a single draw and analyzed with SigmaPlot (Systat Software, San Jose, Calif.) using a least-square fit to a logistic curve and the IC50 value determined from the fitted parameter. ATP secretion proceeded similarly except that 0.45 mL of whole blood were added to 0.45 mL of saline supplemented with various concentrations of Hr10 or eptifibatide to produce the desired concentration at 1.0 mL. Following incubation for 5 minutes at 37° C., 100 μL of Chrono-lume reagent was added and aggregation initiated. The luminescence signal was quantified with a non-aggregated sample supplemented with an ATP standard.
Platelet aggregation was measured in whole blood by impedance increase with a Chrono-log model 700 according to the manufacturer's protocol. Citrated whole blood was diluted with an equal volume of physiologic saline (Sigma) and incubated for 5 min at 37° C. without stirring. Inhibitors were added to final concentration and the cuvette stirred at 1,200 rpm. Following establishment of stable baseline, ADP (20 μM) was added and tracings recorded for 6 min. The extent of aggregation was determined as the integrated impedance over 5 min.

[3] = test system: human platelet-rich plasma (PRP); test: Thrombin-induced clot retraction; type: cell-based; settings: for effect on clot retraction induced by α-thrombin: FIG. 5, tirofiban 1.5 μM, m-tirofiban 15 μM, α-thrombin 0.5 unit/mL; for kinetics of thrombin-induced clot retraction: FIG. 6E, three experiments, vs buffer control
Protocol: 750 μL of Tyrode's buffer supplemented with inhibitor was mixed in a glass culture tube with 200 μL of PRP and 5 μL red blood cells. Clotting was initiated by addition of 50 μL thrombin at 10 units/ml in saline and a sealed Pasteur pipette secured in the tube center. Digital photographs of the experiment were taken at 15-minute intervals over 2 hours. Images were analyzed with ImageJ software to determine the area occupied by the clot and plasma. Plots of the relative areas and linear regressions were performed with SigmaPlot (Systat Software, San Jose, Calif.).
No ligands were added to the control (FIG. 5C) tube. Photographs were taken immediately after thrombin addition (FIG. 5A) and at the end of the reaction (FIG. 5B). Clot retraction around the central glass rod placed in each glass test tube before thrombin addition is shown. 5 μL of red blood cells were added per 1 mL reaction to enhance the color contrast for photography.
Clot retraction normally helps secure hemostasis in vivo as evidenced by increased bleeding in mice with impaired clot retraction (see e.g., Leon et al, Blood 110, 3183-3191, doi: 10.1182/blood-2007-03-080184 (2007)), or in recipients of any of the three anti-αIIbβ3 drugs (see e.g., Tutwiler et al, Biophys. J. 112, 714-723 (2017); Osdoit et al, J. Biol. Chem. 276, 6703-6710 (2001); Haling et al, Blood 117, 1719-1722 (2011)). The effects of Hr10 and eptifibatide on thrombin-induced clot retraction in fresh human platelet-rich plasma (PRP) (see e.g., Tucker et al, Methods Mol. Biol. 788, 101-107 (2012)) were compared. The kinetics of clot retraction were determined from quantification of serial images of the reaction acquired every 15 minutes for the 2-hour duration of the assay. […] Thrombolysis, 15, 71-80 (2003).

αIIbβ3 [4] = target: T1, αIIbβ3; test: Displacement of labeled Hr10 binding to inactive or PT-25-activated αIIbβ3-K562 cells (FACS); parameters: expressed in transfected cells; host or cells: K562; settings: for IC50: Alexa488-labeled Hr10, 1 mM Mg2+ and Ca2+
Protocol: […] Cells were washed, fixed in 2% paraformaldehyde and analyzed by flow cytometry. Ligand binding was expressed as […] of cells in the absence of competitor ligands. Mean and SD from three independent experiments were calculated, and compared using Student's t-test.

αIIbβ3 [5] = target: T1, αIIbβ3; test: Displacement of labeled fibrinogen binding to αIIbβ3-K562 cells (flow cytometry); parameters: expressed in transfected cells; host or cells: K562
Protocol: For ligand binding competition studies, 100 μL of PT-25-activated αIIbpβ3-K562 (1×10^6) were incubated for 30 minutes at RT with serially diluted concentrations of Hr10, hFN10, or eptifibatide in the presence of 0.5 μM Alexa647-conjugated FB. Cells were washed, fixed in 2% paraformaldehyde and analyzed by flow cytometry. Ligand binding was expressed as […] of cells in the absence of competitor ligands. Mean and SD from three independent experiments were calculated, and compared using Student's t-test.

human platelets [6] = test: ADP-induced surface expression of CD62P and CD63 on platelets; type: cell-based; settings: 1.5 μM; ADP 20 μM; FIG. 11F
Protocol: αVβ3-K562 cells or transiently transfected HEK293T (0.5×10^6 in 100 μL WB) were incubated in the absence or presence of unlabeled Hr10 or eptifibatide, each at 1.5 μM, for 20 min at RT. Alexa647-labeled AP5 Fab or unlabeled anti-LIBS-1 (each to 10 μg/mL) were added, and cells incubated for an additional 30 min before washing. Alexa647-labeled AP3 was used for normalization of integrin expression. APC-labeled goat anti-mouse Fc-specific antibody was added to anti-LIBS-1-bound cells for an additional 30 min at 4° C., cells washed and processed for flow cytometry. Binding of anti-CD62 and anti-CD63 mAbs to platelets was performed by incubating (20 min, RT) 100 μL of ligand-pretreated 3.2% sodium citrate whole blood with either Alexa488-labeled mAb (at 10 μg/mL) in the presence of 10 μg/mL Alexa647-labeled anti-CD42b. Cells were fixed in 2% paraformaldehyde and CD62 and CD63 expression was analyzed by flow cytometry in the CD42b positive population.

[7] = test system: vWF^RH/RH NSG mice infused with human platelets; test: Cremaster laser-induced arteriolar injury thrombosis in humanized mice; type: in vivo; settings: eptifibatide 5 μg/mouse, Hr10 60 μg/mouse (equimolar), infused 5 min prior to injury; FIG. 13A
Protocol: Intravital microscopy was performed as previously described (see e.g., Celi et al, J. Thromb. Haemost. 1, 60-68 (2003); and Neyman et al, Blood, 112, 1101-1108 (2008)). vWF^RH/RHNSG male mice were studied after being anesthetized using sodium pentobarbital (80 mg/kg) injected intraperitoneally. Mice were maintained under anesthesia with the same anesthetic delivered via a catheterized jugular vein at 5 mg/mL throughout the experiment. The cremaster muscle was surgically exteriorized and continuously superfused with a physiological buffer (PBS containing 0.9 mM CaCl2 and 0.49 mM MgCl2) maintained at 37° C. throughout the entire experiment and equilibrated with a mixture of 95% N2 and 5% CO2. Human platelets, 400 million per mouse, were labeled with mouse anti-human CD41 F(ab′)2 (BD Biosciences) conjugated to Alexa Fluor-488 and infused into the jugular vein, followed by Alexa Fluor-647 rat anti-mouse CD41 F(ab′)2 (Thermo Fisher) to detect endogenous mouse platelets (see e.g., Fuentes et al, J. Clin. Invest. 126, 483-494 (2016)). Vascular injury was induced with an SRS NL100 pulsed nitrogen dye laser (440 nm) focused on the vessel wall through the microscope objective. […] Intensity of the fluorescent signal was used to measure incorporated platelets (see e.g., Neyman et al, Blood 112, 1101-1108 (2008). Eight injuries were made in each of four mice in each group.

[8] = target: T2, αIIbβ3 on resting platelets (Homo sapiens, UniProt P05106+P08514); settings: Schror & Weber 2003, read-out: affinity of eptifibatide to αIIbβ3 on resting platelets (kD); cited from earlier work
T2 construct: host or cells: resting platelets
T2 sequence (P08514 32-887 limits assumed): as the sequence (P08514 32-887 limits assumed) above
T2 sequence (P08514 891-1039 partner limits assumed): as the sequence (P08514 891-1039 partner limits assumed) above
T2 sequence (P05106 27-788): as the sequence (P05106 27-788) above

human platelets [9] = test: ADP-induced ATP secretion from dense granules in whole blood; type: cell-based; settings: 1.5 μM; ADP 20 μM; FIG. 11E
Protocol: as §1

[10] = FIG. 6D, M-tirofiban 1.5 μM, human platelets

Row | Compound | activating conformational changes in αIIbβ3 reported by AP5 binding (αIIbβ3 [1]; FIG. 4, human platelets in PRP, saturating amounts, absence or presence of 20 μM ADP) | effect on ADP-induced AP5 expression (αIIbβ3 [1]; FIG. 6D, M-tirofiban 1.5 μM, ADP 5 μM added before or after) | induction of AP5 epitope expression (αIIbβ3 [1]; [10]) | IC50 (human platelets [2]; read-out: IC50, human platelet aggregation induced by ADP) | reduction in affinity of M-tirofiban vs. tirofiban (human platelets [2]; from fibrinogen displacement and platelet aggregation assays) | effect on clot retraction induced by α-thrombin [3] | kinetics of thrombin-induced clot retraction [3] | binding affinity to inactive vs. active αIIbβ3 (αIIbβ3 [4]; FIGS. 6F-6G, 12C) | IC50 (αIIbβ3 [4]; active αIIbβ3, read-out: IC50, displacement of labeled Hr10 binding to mAb PT-25-activated αIIbβ3-K562) | IC50 (αIIbβ3 [4]; inactive αIIbβ3, read-out: IC50, displacement of labeled Hr10 binding to inactive αIIbβ3-K562) | IC50 (αIIbβ3 [5]; FIG. 6B, mean±S.E., n=4 experiments, read-out: IC50, displacement of labeled fibrinogen bound to preactivated αIIbβ3-K562) | ADP-induced secretion from platelet α-granules (CD62P expression) and lysosomes (CD63 expression) (human platelets [6]) | nascent occlusive thrombus formation at sites of laser-induced arteriolar injury [7] | conformational changes in αIIbβ3 reported by binding of mAbs AP5 and LIBS-1 (αIIbβ3 [1]; FIG. 8D, 1.5 μM, human platelets, absence or presence of 5 μM ADP) | Kd [8] | kinetics of thrombin-induced clot retraction vs. buffer ([3]; FIGS. 12A-12B, fresh human PRP, 2-hour assay) | inhibition of ADP-induced ATP secretion from dense granules in whole blood (human platelets [9]) | IC50 (αIIbβ3 [5]; FIG. 8C, preactivated αIIbβ3-K562, mean S.E., n=3, read-out: IC50, inhibition of binding of Alexa647-labeled soluble FB to activated αIIbβ3) | IC50 (human platelets [2]; FIG. 6C, ADP 20 μM, mean±S.E., n=5, three donors, read-out: IC50, human platelet aggregation induced by ADP) | IC50 (human platelets [2]; summary of FIGS. 6B-6C, ADP 20 μM, read-out: Prevention of ADP-induced human platelet aggregation, concentration range)
1 | O=C(N[C@@H](Cc1ccc(OCCCCC2CCNCC2)cc1)C(=O)O)c1nc2ccccc2o1 [M-tirofiban, OC(═O)[C@H](CC1═CC═C(OCCCCC2CCNCC2)C═C1)NC(═O)C1═NC2═C(O1)C ═CC═C2] | did not induce the activating shape-shifts | suppressed ADP-induced AP5 expression | did not induce AP5 expression; also recorded: No significant differences were found between B and M | 18.5 ± 5.4 nM | ~10 fold | reduced clot retraction minimally | did not; also recorded: not different between buffer control (contr.) and M-tirofiban | equivalent binding affinities to inactive and active | 247 ± 29.3 nM | 257 ± 88 nM | 30.9 ± 3.3 nM | – | – | – | – | – | – | – | – | –
2 | N=C(N)NCCCC[C@@H]1NC(=O)CCSSC[C@@H](C(N)=O)NC(=O)[C@@H]2CCCN2C(=O)[C@H](Cc2c[nH]c3ccccc23)NC(=O)[C@H](CC(=O)O)NC(=O)CNC1=O [eptifibatide] ([Mpa][hArg]GDWPC-NH2; disulfide 1-7) | – | – | – | – | – | – | – | – | – | – | – | did not significantly alter | completely preventing nascent occlusive thrombus formation | induced conformational changes in αIIbβ3 | 120 nM | clot retraction was significantly reduced vs buffer; also recorded: significantly blocked clot retraction | 60±200% | 73.2 ± 7 nM | – | –
3 | CCCCS(=O)(=O)N[C@@H](Cc1ccc(OCCCCC2CCNCC2)cc1)C(=O)O [tirofiban] | – | – | induced expression of the AP5 epitope | – | – | completely blocked clot retraction | effectively blocked thrombin-induced clot retraction | – | – | – | – | – | – | – | – | – | – | – | 1.41 ± 0.23 nM | 1.5 to 2 nM
